The source of these data is patent US8497092B2, “Method of bioassaying yokukansan” (Tsumura & Co., priority 2008, dated 2013).

Series [1] relates to PC12 cells. Particulars: Non-Patent Documents 1 to 3; cited from earlier work.
Series [2] has as its system PC12 cells. The experiment in a line: Induction of cell death by glutamate in PC12 cells (MTT assay). Particulars: regardless of whether NGF stimulation is present. The format is cell-based, rat. Here is the method:
By using PC12 cells obtained in Example 1, a culture condition to efficiently induce cell death by glutamate was studied as follows.
From the above studies, the best culture condition for inducing cell death by glutamate was determined as follows: the cells are seeded on a plate coated with collagen, and a medium supplemented with dialyzed serum and without phenol red is used as an induction medium. The induction medium contains an antibiotic-containing medium obtained by adding 5 mL of a penicillin-streptomycin solution to 500 mL of RPMI 1640 medium (GIBCO 11835-030), 5% dialyzed fetal bovine serum (GIBCO 26400-044), and 10% dialyzed horse serum (Biowest S090D). […]
After 24 hours from the above induction of cell death, 0.5% MTT solution (Dojindo 345-01821) was added in an amount of 20 μL per 100 μL of the medium in the above 96-well plate and cultured for 5 hours. […] The crystals of formazan were dissolved using a pipette, and after leaving the solution overnight, the absorbance at a wavelength of 570 nm was measured with a reference wavelength of 690 nm using a spectrometer (Multiskan MCC/340, manufactured by Titertek, Inc.). Thereafter, the cell viability was calculated from the following calculation formula on the basis of the obtained absorbance. […]

As for (−)-epigallocatechin gallate, the “inhibition of cell death caused by glutamate” value in the series with PC12 cells [1] was “cell death is inhibited”.
As for `N[C@@H](CCC(=O)O)C(=O)O` [glutamate], in the series with PC12 cells [2], the “cell death caused by glutamate” value is “concentration-dependent manner”.
